This passage reports EC50 results from patent US20250127914A1, “ANTIBODY-CONJUGATED 8-SULFONYL-BENZAZEPINE COMPOUNDS AND THEIR USES” (BOLT BIOTHERAPEUTICS, INC., priority 2022, published 2025).

Molecules are shown by their SMILES.

In one assay the target is T1, human TLR8 (Homo sapiens, UniProt Q9NR97).
T1 construct: host or cells: HEK293 NF-kB reporter cells
T1 sequence (Q9NR97 27-1041): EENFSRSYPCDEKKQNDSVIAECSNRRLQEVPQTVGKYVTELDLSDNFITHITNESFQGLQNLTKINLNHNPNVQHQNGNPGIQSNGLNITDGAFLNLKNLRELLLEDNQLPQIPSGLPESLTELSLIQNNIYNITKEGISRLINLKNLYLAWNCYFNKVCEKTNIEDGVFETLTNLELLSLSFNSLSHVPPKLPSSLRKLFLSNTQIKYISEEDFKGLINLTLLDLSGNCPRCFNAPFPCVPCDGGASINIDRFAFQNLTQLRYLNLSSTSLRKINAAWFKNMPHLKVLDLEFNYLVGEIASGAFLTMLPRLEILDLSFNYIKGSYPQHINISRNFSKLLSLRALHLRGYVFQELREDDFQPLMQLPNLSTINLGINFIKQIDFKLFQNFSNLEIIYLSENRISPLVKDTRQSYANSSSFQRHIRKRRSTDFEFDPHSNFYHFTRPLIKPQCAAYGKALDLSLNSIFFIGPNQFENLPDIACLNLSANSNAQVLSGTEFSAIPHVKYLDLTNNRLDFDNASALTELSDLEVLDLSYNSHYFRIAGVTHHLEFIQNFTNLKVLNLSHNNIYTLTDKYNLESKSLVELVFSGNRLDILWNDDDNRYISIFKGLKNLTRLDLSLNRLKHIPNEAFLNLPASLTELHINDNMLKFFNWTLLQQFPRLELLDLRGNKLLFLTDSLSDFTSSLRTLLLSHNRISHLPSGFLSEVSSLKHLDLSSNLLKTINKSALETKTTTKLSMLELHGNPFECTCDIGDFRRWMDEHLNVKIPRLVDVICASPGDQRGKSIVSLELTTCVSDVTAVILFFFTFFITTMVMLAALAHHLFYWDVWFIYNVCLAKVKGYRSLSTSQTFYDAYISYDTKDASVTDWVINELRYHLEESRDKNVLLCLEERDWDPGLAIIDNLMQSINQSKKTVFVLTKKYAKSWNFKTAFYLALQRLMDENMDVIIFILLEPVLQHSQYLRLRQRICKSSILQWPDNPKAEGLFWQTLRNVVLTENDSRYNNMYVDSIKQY
Put plainly: HEK Reporter Assay, human TLR8. The format is cell-based. The settings on record: HEK293 NFKB reporter cells expressing human TLR8; read-out: HEK293 hTLR8 EC50. The method, then: (§1) Exemplary 8-sulfonyl-2-aminobenzazepine compounds (8SO2Bz) of the invention were synthesized, purified, and characterized by mass spectrometry and shown to have the expected mass. Additional experimental procedures are found in the Examples. Activity against HEK293 NFKB reporter cells expressing human TLR7 or human TLR8 was measured according to Example 202.
(§2) HEK293 reporter cells expressing human TLR7 or human TLR8 were purchased from Invivogen and vendor protocols were followed for cellular propagation and experimentation. Briefly, cells were grown to 80-85% confluence at 5% CO2 in DMEM supplemented with 10% FBS, Zeocin, and Blasticidin. Cells were then seeded in 96-well flat plates at 4×10^4 cells/well with substrate containing HEK detection medium and immunostimulatory molecules. Activity was measured using a plate reader at 620-655 nm wavelength.
In general terms: In a reporter assay the amount or activity of a reporter protein is the signal.

The target in a further assay is T2, human TLR7 (Homo sapiens, UniProt Q9NYK1).
T2 construct: host or cells: HEK293 NF-kB reporter cells
T2 sequence (Q9NYK1 27-1049): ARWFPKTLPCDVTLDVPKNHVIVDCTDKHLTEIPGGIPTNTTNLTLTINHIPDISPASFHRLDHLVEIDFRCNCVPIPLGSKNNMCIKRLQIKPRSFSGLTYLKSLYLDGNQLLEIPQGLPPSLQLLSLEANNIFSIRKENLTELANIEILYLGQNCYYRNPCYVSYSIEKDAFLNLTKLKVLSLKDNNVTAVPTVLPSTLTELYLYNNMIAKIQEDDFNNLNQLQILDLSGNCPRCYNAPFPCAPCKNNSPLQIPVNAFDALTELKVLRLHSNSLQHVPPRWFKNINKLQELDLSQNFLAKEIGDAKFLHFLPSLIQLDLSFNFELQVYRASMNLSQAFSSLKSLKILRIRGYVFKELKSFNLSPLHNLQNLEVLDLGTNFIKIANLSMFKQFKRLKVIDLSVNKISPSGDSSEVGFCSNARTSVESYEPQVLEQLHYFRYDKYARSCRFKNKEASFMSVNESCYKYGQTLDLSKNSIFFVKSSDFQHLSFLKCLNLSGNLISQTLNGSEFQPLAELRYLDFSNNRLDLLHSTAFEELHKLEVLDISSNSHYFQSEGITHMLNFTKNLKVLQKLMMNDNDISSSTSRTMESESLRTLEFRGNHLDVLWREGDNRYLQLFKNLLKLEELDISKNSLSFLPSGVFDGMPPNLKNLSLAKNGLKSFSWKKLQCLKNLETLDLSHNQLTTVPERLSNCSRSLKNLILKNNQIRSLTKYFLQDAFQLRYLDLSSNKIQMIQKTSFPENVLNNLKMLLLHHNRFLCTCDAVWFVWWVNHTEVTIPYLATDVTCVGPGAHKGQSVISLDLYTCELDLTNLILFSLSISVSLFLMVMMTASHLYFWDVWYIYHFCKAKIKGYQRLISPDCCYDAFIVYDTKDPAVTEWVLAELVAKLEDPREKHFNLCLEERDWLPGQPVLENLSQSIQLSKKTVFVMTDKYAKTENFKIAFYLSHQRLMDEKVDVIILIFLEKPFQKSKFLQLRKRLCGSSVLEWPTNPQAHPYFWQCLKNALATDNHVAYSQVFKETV
In words: HEK Reporter Assay, human TLR7. In kind it is cell-based. The settings on record: HEK293 NFKB reporter cells expressing human TLR7; read-out: HEK293 hTLR7 EC50. On the procedure: as §1, §2

As usually defined, the EC50 is the concentration that produces a half-maximal response. Take `CCCN(OCCNC(=O)OC(C)(C)C)C(=O)C1=Cc2ccc(S(=O)(=O)N(C)C)cc2N=C(N)C1` [Immunoconjugate 8SO2Bz-2]: the EC50 on human TLR8 is under 2.3 nM; at human TLR7, 395 nM. For `CCCN(OCC)C(=O)C1=Cc2ccc(S(=O)(=O)c3ccc(C(=O)OC)cc3)cc2N=C(N)C1`, the EC50 on human TLR8 worked out at 1060 nM. Take `CCCN(OCC)C(=O)C1=Cc2ccc(S(=O)(=O)NC)cc2N=C(N)C1` [Immunoconjugate 8SO2Bz-3]: the EC50 on human TLR8 came out at 202 nM.
